Assay results from PubChem BioAssay AID1963982 (Molecular Pharmacology Branch, DTP, NCI, 2024).

Tested on: 313798-341-R-J2-PDC spheroids, viability
Assay: Anticancer human tumor 313798-341-R-J2-PDC patient-derived cervical squamous cell carcinoma cell line growth inhibition [PI3K]
Conditions: spheroids with HUVEC and MSC; for IC50: curve of first compound; for viability, T/C: stronger effect = lower value
Summary of the method: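 Tumor cells were combined with HUVEC and MSCs into spheroids, then dosed with PI3K-inhibitor combinations over half-log ranges capped near clinical Cmax or 10 microM.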

[1] = second compound 0.0316 µM, first compound 0.0316 µM
[2] = second compound 0.0316 µM, first compound 0.1 µM
[3] = second compound 0.0316 µM, first compound 0.316 µM
[4] = second compound 0.0316 µM, first compound 1 µM
[5] = second compound 0.0316 µM, first compound 3.16 µM
[6] = second compound 0.0316 µM, first compound 10 µM
[7] = second compound 0.1 µM, first compound 0.0316 µM
[8] = second compound 0.1 µM, first compound 0.1 µM
[9] = second compound 0.1 µM, first compound 0.316 µM
[10] = second compound 0.1 µM, first compound 1 µM
[11] = second compound 0.1 µM, first compound 3.16 µM
[12] = second compound 0.1 µM, first compound 10 µM
[13] = second compound 0.316 µM, first compound 0.0316 µM
[14] = second compound 0.316 µM, first compound 0.1 µM
[15] = second compound 0.316 µM, first compound 0.316 µM
[16] = second compound 0.316 µM, first compound 1 µM
[17] = second compound 0.316 µM, first compound 3.16 µM
[18] = second compound 0.316 µM, first compound 10 µM
[19] = second compound 1 µM, first compound 0.0316 µM
[20] = second compound 1 µM, first compound 0.1 µM
[21] = second compound 1 µM, first compound 0.316 µM
[22] = second compound 1 µM, first compound 1 µM
[23] = second compound 1 µM, first compound 3.16 µM
[24] = second compound 1 µM, first compound 10 µM
[25] = second compound 3.16 µM, first compound 0.0316 µM
[26] = second compound 3.16 µM, first compound 0.1 µM
[27] = second compound 3.16 µM, first compound 0.316 µM
[28] = second compound 3.16 µM, first compound 1 µM
[29] = second compound 3.16 µM, first compound 3.16 µM
[30] = second compound 3.16 µM, first compound 10 µM
[31] = second compound 10 µM, first compound 0.0316 µM
[32] = second compound 10 µM, first compound 0.1 µM
[33] = second compound 10 µM, first compound 0.316 µM
[34] = second compound 10 µM, first compound 1 µM
[35] = second compound 10 µM, first compound 3.16 µM
[36] = second compound 10 µM, first compound 10 µM
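Note: spheroids exposed to compounds for seven days.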
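Throughout, for viability, T/C: 100% = DMSO vehicle control viability.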

Compound: CC(Cn1ccc(-c2ccc(C#N)c(Cl)c2)n1)NC(=O)c1cc(C(C)O)[nH]n1 (centres undefined) + CC(Nc1ncnc2nc[nH]c12)c1cc2cccc(Cl)c2c(=O)n1-c1ccccc1
- IC50 (second compound 0.0316 µM): > 10 µM
- IC50 (second compound 0.1 µM): > 10 µM
- IC50 (second compound 0.316 µM): > 10 µM
- IC50 (second compound 1 µM): > 10 µM
- IC50 (second compound 3.16 µM): > 10 µM
- IC50 (second compound 10 µM): > 10 µM
- viability, T/C [1]: 119%
- viability, T/C [2]: 103%
- viability, T/C [3]: 106%
- viability, T/C [4]: 115%
- viability, T/C [5]: 101%
- viability, T/C [6]: 101%
- viability, T/C [7]: 101%
- viability, T/C [8]: 105%
- viability, T/C [9]: 104%
- viability, T/C [10]: 103%
- viability, T/C [11]: 98%
- viability, T/C [12]: 95%
- viability, T/C [13]: 90.9%
- viability, T/C [14]: 103%
- viability, T/C [15]: 96.6%
- viability, T/C [16]: 101%
- viability, T/C [17]: 102%
- viability, T/C [18]: 90%
- viability, T/C [19]: 113%
- viability, T/C [20]: 106%
- viability, T/C [21]: 108%
- viability, T/C [22]: 101%
- viability, T/C [23]: 96.2%
- viability, T/C [24]: 91.5%
- viability, T/C [25]: 108%
- viability, T/C [26]: 103%
- viability, T/C [27]: 100%
- viability, T/C [28]: 107%
- viability, T/C [29]: 105%
- viability, T/C [30]: 93.4%
- viability, T/C [31]: 87.8%
- viability, T/C [32]: 88.3%
- viability, T/C [33]: 94.6%
- viability, T/C [34]: 100%
- viability, T/C [35]: 90.8%
- viability, T/C [36]: 81.7%

Compound: C=CC(=O)N1CCN(c2nc(=O)n(-c3c(C)ccnc3C(C)C)c3nc(-c4c(O)cccc4F)c(F)cc23)C(C)C1 (centres undefined) + CC(Nc1ncnc2nc[nH]c12)c1cc2cccc(Cl)c2c(=O)n1-c1ccccc1
- IC50 (second compound 0.0316 µM): > 10 µM
- IC50 (second compound 0.1 µM): > 10 µM
- IC50 (second compound 0.316 µM): > 10 µM
- IC50 (second compound 1 µM): > 10 µM
- IC50 (second compound 3.16 µM): > 10 µM
- IC50 (second compound 10 µM): > 10 µM
- viability, T/C [1]: 112%
- viability, T/C [2]: 102%
- viability, T/C [3]: 113%
- viability, T/C [4]: 100%
- viability, T/C [5]: 103%
- viability, T/C [6]: 94.9%
- viability, T/C [7]: 89.4%
- viability, T/C [8]: 96.2%
- viability, T/C [9]: 99.1%
- viability, T/C [10]: 99.8%
- viability, T/C [11]: 102%
- viability, T/C [12]: 102%
- viability, T/C [13]: 106%
- viability, T/C [14]: 91.5%
- viability, T/C [15]: 106%
- viability, T/C [16]: 98.1%
- viability, T/C [17]: 104%
- viability, T/C [18]: 92.9%
- viability, T/C [19]: 102%
- viability, T/C [20]: 95.4%
- viability, T/C [21]: 102%
- viability, T/C [22]: 90.3%
- viability, T/C [23]: 98.2%
- viability, T/C [24]: 102%
- viability, T/C [25]: 110%
- viability, T/C [26]: 94.1%
- viability, T/C [27]: 87.6%
- viability, T/C [28]: 99.5%
- viability, T/C [29]: 100%
- viability, T/C [30]: 91.9%
- viability, T/C [31]: 87.7%
- viability, T/C [32]: 85.2%
- viability, T/C [33]: 98.2%
- viability, T/C [34]: 84.1%
- viability, T/C [35]: 90.4%
- viability, T/C [36]: 78.3%
